Data as given in publication PMC9740559, “Molecular and Pharmacological Characterization of β-Adrenergic-like Octopamine Receptors in the Endoparasitoid Cotesia chilonis (Hymenoptera: Braconidae)” (International Journal of Molecular Sciences, 2022).
pEC50, pIC50: −log10 of the molar value.

What was measured:
CcOctβ2R [1] = system: T1, CcOctβ2R; experiment: cAMP production in stable CHO-K1 cells (cAMP immunoassay); format: cell-based, Cotesia chilonis; settings: agonist; 100 μM IBMX; 25 °C
T1 construct: gene Octβ2R; full-length ORF, 435 residues; pcDNA3.0 vector with hemagglutinin A tag
Description: cAMP production in stable CHO-K1 cells (cAMP immunoassay) on CcOctβ2R

CcOctβ1R [2] = system: T2, CcOctβ1R; experiment: as above; format: cell-based, Cotesia chilonis; settings: agonist; 100 μM IBMX; 25 °C
T2 construct: gene Octβ1R; full-length ORF, 417 residues; pcDNA3.0 vector with hemagglutinin A tag
Description: cAMP production in stable CHO-K1 cells (cAMP immunoassay) on CcOctβ1R

CcOctβ3R [3] = system: T3, CcOctβ3R; experiment: as above; format: cell-based, Cotesia chilonis; settings: agonist; 100 μM IBMX; 25 °C
T3 construct: gene Octβ3R; full-length ORF, 358 residues; pcDNA3.0 vector with hemagglutinin A tag
Description: cAMP production in stable CHO-K1 cells (cAMP immunoassay) on CcOctβ3R

CcOctβ2R [4] = system: T4, CcOctβ2R; settings: read-out: CcOctβ2R / IC50; antagonist; non-saturating OA (30 nM); 100 μM IBMX; 25 °C
T4 construct: gene Octβ2R
Description: inhibition of OA-induced cAMP in stable CHO-K1 cells (cAMP immunoassay) on CcOctβ2R

CcOctβ1R [5] = system: T5, CcOctβ1R; settings: read-out: CcOctβ1R / IC50; antagonist; non-saturating OA (100 nM); 100 μM IBMX; 25 °C
T5 construct: gene Octβ1R
Description: inhibition of OA-induced cAMP in stable CHO-K1 cells (cAMP immunoassay) on CcOctβ1R

CcOctβ3R [6] = system: T6, CcOctβ3R; settings: read-out: CcOctβ3R / IC50; antagonist; non-saturating OA (300 nM); 100 μM IBMX; 25 °C
T6 construct: gene Octβ3R
Description: inhibition of OA-induced cAMP in stable CHO-K1 cells (cAMP immunoassay) on CcOctβ3R

SMILES: Cc1ccc(/N=C/N(C)/C=N/c2ccc(C)cc2C)c(C)c1 [Amitraz]
- pEC50 (CcOctβ2R [1]): 8.49
- pEC50 (CcOctβ1R [2]): 7.78

SMILES: CN=CNc1ccc(C)cc1C [DPMF, N^2-(2,4-dimethylphenyl)-N^1-methyformamidine]
- pEC50 (CcOctβ2R [1]): 8.63
- pEC50 (CcOctβ3R [3]): 8.36
- pEC50 (CcOctβ1R [2]): 8.03

SMILES: NC1=NCC2c3ccccc3Cc3ccccc3N12 (centres unmarked) [Epinastine]
- pIC50 (CcOctβ2R [4]): 7.84
- pIC50 (CcOctβ1R [5]): 7.42
- pIC50 (CcOctβ3R [6]): 8.13

SMILES: c1ccc2c(CC3=NCCN3)cccc2c1 [Naphazoline]
- pEC50 (CcOctβ2R [1]): 10.80
- pEC50 (CcOctβ3R [3]): 8.30
- pEC50 (CcOctβ1R [2]): 9.64

SMILES: NC[C@H](O)c1ccc(O)cc1 [OA]
- pEC50 (CcOctβ2R [1]): 8.17
- pEC50 (CcOctβ3R [3]): 7.47
- pEC50 (CcOctβ1R [2]): 7.41
